From patent publication EP3327020A1, “CITRATE SALTS OF A JANUS KINASE (JAK) INHIBITOR” (SANDOZ AG, priority 2016, dated 2018)
In brackets after ≈: the same amount, converted by molar mass. Entries after “also recorded” stand apart in the source; their conditions may differ.

Assay: Solubility in 0.1N aqueous HCl (saturated solution stirred at 37 °C for 1 hour, filtered, baricitinib concentration of the mother liquor determined by HPLC)
Type: physicochemical
Details: for solubility at 1 h: simulated gastric fluid, thermodynamic from solid, read-out: Solubility in 0.1N aqueous HCl after 1 hour
Method: The solubilities of baricitinib free base, phosphate, trifluoroacetate, monocitrate and dicitrate in 0.1N HCl have been determined. […] Thereafter, the solid was removed by filtration and the baricitinib concentration of the mother liquor was determined by HPLC.
The absolute solubility values were calculated from a calibration curve generated with solutions of known baricitinib concentrations and are listed in Table 5. Table 5: Comparative solubility data in 0.1N aqueous hydrochloric acid

[1] = 0.1N aqueous HCl, 37 °C, 1 hour, baricitinib concentration by HPLC

CCS(=O)(=O)N1CC(CC#N)(n2cc(-c3ncnc4[nH]ccc34)cn2)C1 [{1-(Ethylsulfonyl)-3-[4-(7H-pyrrolo[2,3-d]pyrimidin-4-yl)-1H-pyrazol-1-yl]azetidin-3-yl}acetonitrile]
solubility at 1 h [1]: 25 mg/mL (≈ 67.3 mM)

CCS(=O)(=O)N1CC(CC#N)(n2cc(-c3ncnc4[nH]ccc34)cn2)C1.O=C(O)CC(O)(CC(=O)O)C(=O)O [{1-(Ethylsulfonyl)-3-[4-(7H-pyrrolo[2,3-d]pyrimidin-4-yl)-1H-pyrazol-1-yl]azetidin-3-yl}acetonitrile monocitrate]
solubility relative to the solubility of baricitinib free base (0.1N aqueous hydrochloric acid): more than 2 fold | solubility at 1 h [1]: > 50 mg/mL

CCS(=O)(=O)N1CC(CC#N)(n2cc(-c3ncnc4[nH]ccc34)cn2)C1.O=C(O)CC(O)(CC(=O)O)C(=O)O.O=C(O)CC(O)(CC(=O)O)C(=O)O [{1-(Ethylsulfonyl)-3-[4-(7H-pyrrolo[2,3-d]pyrimidin-4-yl)-1H-pyrazol-1-yl]azetidin-3-yl}acetonitrile dicitrate]
solubility relative to the solubility of baricitinib free base (0.1N aqueous hydrochloric acid): more than 2 fold | solubility at 1 h [1]: > 50 mg/mL

CCS(=O)(=O)N1CC(CC#N)(n2cc(-c3ncnc4[nH]ccc34)cn2)C1.O=P(O)(O)O [Phosphate salt of WO 2009/114512 A1]
Solubility in 0.1N aqueous HCl after 1 hour [1]: 26 mg/mL | solubility compared to the free base form (in words) (0.1N aqueous hydrochloric acid, listed as phosphate salt of baricitinib): only a slightly increased solubility; also recorded: only slightly improved solubility values
